# Test results published in patent US11414459B2 (Kinoxis Therapeutics Pty Ltd, priority 2017, dated 2022).
# pEC50, pIC50, pKi: −log10 of the molar value. Where a SMILES comes first, the peptide text is derived from it. Bridges are numbered along the chain shown (N, C = ends).
# Columns and labels:
# OXTR (OT receptor) [1] = molecular target: T1, OXTR (OT receptor) (Homo sapiens, UniProt P30559); assay: cell-based; settings: for Emax: read-out: Emax (% OXT)
# T1 sequence (P30559 1-389): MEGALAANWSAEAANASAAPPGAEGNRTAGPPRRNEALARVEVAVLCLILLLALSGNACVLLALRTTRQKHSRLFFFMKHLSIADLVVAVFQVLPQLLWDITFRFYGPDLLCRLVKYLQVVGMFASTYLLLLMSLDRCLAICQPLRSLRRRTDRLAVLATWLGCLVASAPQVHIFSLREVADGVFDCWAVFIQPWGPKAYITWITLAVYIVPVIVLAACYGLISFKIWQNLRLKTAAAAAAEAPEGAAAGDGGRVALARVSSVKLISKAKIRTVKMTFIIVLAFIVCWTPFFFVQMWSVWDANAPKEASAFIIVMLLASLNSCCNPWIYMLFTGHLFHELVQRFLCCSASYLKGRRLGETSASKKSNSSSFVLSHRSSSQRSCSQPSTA
# V1aR (V1a receptor) [2] = molecular target: T2, V1aR (V1a receptor) (Homo sapiens, UniProt P37288); assay: Competition radioligand binding assay, [3H]-vasopressin displacement; settings: membranes from V1a receptor-expressing HEK293 cells, [3H]-vasopressin 2 nM
# T2 construct: expressed in transfected cells; host or cells: HEK293
# T2 sequence (P37288 whole entry, species assumed): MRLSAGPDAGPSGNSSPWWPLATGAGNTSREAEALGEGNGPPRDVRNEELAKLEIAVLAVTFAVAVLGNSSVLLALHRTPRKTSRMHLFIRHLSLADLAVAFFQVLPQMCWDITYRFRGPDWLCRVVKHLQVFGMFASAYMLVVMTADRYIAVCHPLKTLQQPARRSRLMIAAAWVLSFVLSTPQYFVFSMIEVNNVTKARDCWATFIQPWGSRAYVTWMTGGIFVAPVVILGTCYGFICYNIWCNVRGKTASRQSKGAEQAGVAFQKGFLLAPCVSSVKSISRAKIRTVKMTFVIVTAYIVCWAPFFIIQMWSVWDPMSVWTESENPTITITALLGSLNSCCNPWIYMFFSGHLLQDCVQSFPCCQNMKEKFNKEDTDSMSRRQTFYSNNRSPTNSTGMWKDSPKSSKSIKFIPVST
# Experimental: (§1) Competition Radioligand Binding Assay Experimental Procedures
# (§2) Reactions were incubated for 90 min at 4 C to reach equilibrium, and terminated by rapid filtration over glass fibre filters (Whatman GF/A […]), and washing with ice-cold reaction buffer. Radioactivity was detected after soaking filters in Microscint 0 using a Microbeta2 2450 microplate-reader (Perkin Elmer).
# OXTR (OT receptor) [3] = molecular target: T1, OXTR (OT receptor); assay: HTRF-IP1 accumulation assay, antagonist assessment; assay type: cell-based; design: expressed in transfected cells; host or cells: HEK293
# V1aR (V1a receptor) [4] = molecular target: T2, V1aR (V1a receptor); assay: HTRF-IP1 accumulation assay, agonist assessment; assay type: cell-based; settings: for pEC50: V1a receptor-expressing HEK293 cells, IP1 accumulation, 1 h incubation
# Experimental: HTRF-IP1 Accumulation Assay Experimental Procedures
# OT or V1a receptor-expressing HEK293 cells were seeded onto clear, poly-L-lysine (100 μg/mL)-coated 384 well plates at a density of 8.75×10^3 cells per well. Levels of receptor activation induced by compounds were assessed at concentrations ranging from 1 nM to 100 μM using the HTRF IP-One kit (CisBio International, Bagnolssur-Cze, France), according to manufacturers protocol. For agonist assessment, cells were incubated with compounds for 1 h prior to the addition of Ab-Cryptate and IP1-d2. The ligand concentration that induced a 50% maximal response (EC50) was used to evaluate functional effects across compounds. […] Cells were then incubated for a further 1 h, and Ab-Cryptate and IP1-d2 added.
# OXTR or V1aR receptors = assay: Activity/selectivity at OXTR or V1aR receptors stated in words; settings: OXTR over V1aR
# V1aR (V1a receptor) [5] = molecular target: T2, V1aR (V1a receptor); assay: HTRF-IP1 accumulation assay, antagonist assessment; assay type: cell-based; settings: against EC70 concentration of vasopressin
# OXTR (OT receptor) [6] = molecular target: T1, OXTR (OT receptor); assay: Competition radioligand binding assay, [3H]-oxytocin displacement; design: expressed in transfected cells; host or cells: HEK293; settings: membranes from OT receptor-expressing HEK293 cells, [3H]-oxytocin 10 nM
# Experimental: as §1, §2
"Emax (V1aR (V1a receptor) [4]; V1aR, relative to vasopressin)",SMILES,pEC50 (OXTR (OT receptor) [1]),Emax (OXTR (OT receptor) [1]),pKi (V1aR (V1a receptor) [2]),pIC50 (OXTR (OT receptor) [3]),pEC50 (V1aR (V1a receptor) [4]),selectivity and activity compared with oxytocin (OXTR or V1aR receptors),pIC50 (V1aR (V1a receptor) [5]),pKi (OXTR (OT receptor) [6])
–,CC[C@H](C)[C@@H]1NC(=O)[C@H](Cc2ccc(O)cc2)NC(=O)[C@@H](N)CSSC[C@@H](C(=O)N2CCC[C@H]2C(=O)N[C@@H](CC(C)C)C(N)=O)NC(=O)[C@H](CC(N)=O)NC(=O)[C@H](CCC(N)=O)NC1=O [Metabolite A] (H-CYIQNCPL-NH2; disulfide 1-6),6.56,79.2%,6.13,< 5.00,< 5.00,enhanced selectivity and activity,< 5.00,6.86
–,CC[C@H](C)[C@@H]1NC(=O)[C@H](Cc2ccc(O)cc2)NC(=O)[C@@H](N)CSSC[C@@H](C(=O)N2CCC[C@H]2C(N)=O)NC(=O)[C@H](CC(N)=O)NC(=O)[C@H](CCC(N)=O)NC1=O [Metabolite B] (H-CYIQNCP-NH2; disulfide 1-6),6.96,74.1%,6.98,< 5.00,< 5.00,enhanced selectivity and activity,< 5.00,7.14
82%,"CC[C@H](C)[C@@H]1NC(=O)[C@H](Cc2ccc(O)cc2)NC(=O)[C@@H](N)CSSC[C@@H](C(=O)N2CCC[C@H]2C(=O)N[C@@H](CC(C)C)C(=O)NCC(N)=O)NC(=O)[C@H](CC(N)=O)NC(=O)[C@H](CCC(N)=O)NC1=O [Oxytocin, reference compound]",–,–,–,–,–,–,–,–
